# Assay results as given in patent US6949516B2, “Dipeptide apoptosis inhibitors and the use thereof” (Cytovia, Inc., priority 1997, dated 2005).
# Where a SMILES comes first, the peptide text is derived from it. The star is where a group is joined. Cbz = O=C(OCc1ccccc1)*; CH2F = FC*
# Key:
# [1] = tested on: HeLa cells; assay: Effect of Z-VD-fmk on TNF-α-induced cell death in HeLa cells (calcein AM, Example 25); type: cell-based; settings: below 1 μM (data not shown)
# Description: Tumor necrosis factor alpha (TNF-α) can trigger apoptosis in a number of cell types by initiating the caspase cascade and its apoptosis inducing activity can be inhibited by peptide-based caspase inhibitors. However, high concentrations of the inhibitors (50 μM or greater) is required to have good anti-apoptotic effect. HeLa cells, a cell line commonly employed in TNF-α cell death studies, was used here to determine the anti-apoptotic potency of Z-VD-fmk.
# HeLa cells were seeded in 48-well multidishes at a density of 50,000 cells per well 24 hours before treatment. They were then pre-incubated with varying concentrations of Z-VD-fmk for 2 hours and challenged with TNF-α (25 ng/mL) and cycloheximide (CHX; 30 μg/mL). The cultures were incubated for an additional 24 hours and dead cells were removed by two washes with PBS. The density of surviving cells was then measured by incubating each culture for 45 minutes with calcein AM, a profluorescent dye which is taken up by living cells and converted to a fluorescent product. The resulting data were expressed as % control values (control values were cells incubated with cycloheximide but without TNF-α).
# Z-VD-fmk provided good cytoprotection at concentrations approaching 100 nM.
# [2] = tested on: PARP cleavage in Jurkat cells; assay: Effect of Z-VD-fmk on PARP cleavage in antiFas-treated Jurkat cells (Example 24); type: cell-based, human
# Description: Poly(ADP)ribose polymerase (PARP) was one of the first caspase-3 substrates identified and the cleavage of PARP is still considered to be a near-universal marker for caspase-3 activation and caspase-mediated apoptosis. The ability of an anti-apoptotic compound to block PARP cleavage is therefore a useful indicator of its ability to inhibit apoptosis. The potency of Z-VD-fmk in a PARP cleavage assay was tested using antiFas-treated Jurkat cells. 2×10^6 Jurkat cells were seeded in each well of a 6-well dish and pre-incubated with test compounds for 30 minutes. The cells were then challenged with 500 ng/mL of an agonistic antiFas antibody or PBS for 4 hours. The cells were then harvested, pelleted gently, washed two times with PBS and lysed in RIPA buffer. Aliquots of the lysate were analyzed by SDS-PAGE and the proteins were transferred to PVDF membranes for Western blotting. The primary antibody was a polyclonal antiPARP serum which cross-reacts with both full-length PARP and the caspase-3-generated cleavage product.
smiles,measurement,setting,value
"COC(=O)C[C@H](NC(=O)[C@H](C)NC(=O)[C@@H](NC(=O)OCc1ccccc1)C(C)C)C(=O)CF [Z-VAD-fmk, reference compound] (Cbz-Val-Ala-Asp(OMe)-CH2F)",cytoprotection against TNF-α-induced cell death,[1],loses much of its cytoprotective properties
same,inhibition of PARP cleavage,"[2]; 500 nM, antiFas-treated Jurkat cells",much less effective
same,inhibition of PARP cleavage,"[2]; 5 μM, antiFas-treated Jurkat cells (data not shown)",effective inhibitor
